Measurements as given in article PMC12222587, “A2B adenosine receptor-triggered intracellular calcium mobilization: Cell type-dependent involvement of Gi, Gq, Gs proteins and protein kinase C” (Purinergic Signalling, 2025).
“Also recorded” adds a separate entry of the source. Where two headings read alike, the source gives them in different places. *1 amine or outer side, *2 acyl side, *3 side chain or, on linkers, in order; H or OH if unused. Where a SMILES comes first, the peptide text is derived from it. Bridges are numbered along the chain shown (N, C = ends). [ ]: non-standard residue; d: D form. X2 = CC(=O)NC(C(=O)OC(C(C)C)C(N[*:1])C(=O)[*:2])C(O)C(C)C; PhLac = O=C(O)[CH](O)Cc1ccccc1; NMeT = CN[CH](C(=O)O)[CH](C)O; NMeA = CN[CH](C)C(=O)O; NMeDha = C=C(NC)C(=O)O

Key:
[1] = biological target: T1, A2BAR (Homo sapiens, UniProt P29275); test: Intracellular calcium mobilization, T24 bladder cancer cells, native A2BAR (NECA); type: cell-based
T1 sequence (P29275 1-332): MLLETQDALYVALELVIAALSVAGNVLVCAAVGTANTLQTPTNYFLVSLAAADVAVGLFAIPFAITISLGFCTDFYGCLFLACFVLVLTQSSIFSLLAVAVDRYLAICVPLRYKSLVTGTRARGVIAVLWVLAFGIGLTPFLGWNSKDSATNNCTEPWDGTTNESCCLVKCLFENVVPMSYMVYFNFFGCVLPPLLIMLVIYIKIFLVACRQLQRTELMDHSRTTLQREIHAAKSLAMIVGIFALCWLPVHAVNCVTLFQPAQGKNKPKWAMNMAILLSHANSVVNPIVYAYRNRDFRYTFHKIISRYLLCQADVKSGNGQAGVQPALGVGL

[2] = biological target: T2, P2Y1R (Homo sapiens, UniProt P47900); test: Intracellular calcium mobilization, T24 bladder cancer cells, native P2Y1R (MRS2365); type: cell-based; conditions: YM 300 nM, FR 300 nM, PTX 200 ng/ml overnight
[3] = biological target: β2-adrenergic receptor (Homo sapiens, UniProt P07550); test: Intracellular calcium mobilization, T24 bladder cancer cells, endogenous β2-adrenergic receptor; type: cell-based; conditions: T24 cells; for Effect on formoterol-induced calcium mobilization (β2-adrenergic receptor): PTX 200 ng/ml, CTX 500 ng/ml
[4] = biological target: T1, A2BAR; design: method as in PMID 24853985; conditions: T24 cells; cited from earlier work
[5] = system: P2Y1R; conditions: 1321N1 astrocytoma (P2Y1-overexpressing); ref Gao and Jacobson, 2017 [29]; cited from earlier work
[6] = biological target: T3, A2AAR (Homo sapiens, UniProt P29274); test: cAMP accumulation, HEK293 cells, A2AAR-mediated stimulation (CGS21680); type: cell-based
T3 construct: host or cells: HEK293
Method: (§1) HEK293, T24 bladder cancer and MDA-MB-231 breast cell lines were cultured in DMEM medium containing 10% fetal bovine serum, 100 units/ml penicillin, 100 μg/ml streptomycin, and 2 μmol/ml glutamine. For the assay of 3′,5′-cyclic adenosine monophosphate (cAMP), cells were plated in 96-well (4 × 10^4 cells/well) clear plates in 100 μl of medium overnight. Cell culture medium was then replaced with 80 µl HBSS buffer containing 20 mM HEPES, phosphodiesterase inhibitor rolipram (10 μM), and 3 units/ml adenosine deaminase (Worthington Biochemical, Lakewood, NJ, USA) for 30 min followed by agonist addition to the mixture, which was then incubated for 20 min. The treatment of YM or FR was 20 min before agonist addition.

[7] = biological target: T4, A1AR (Homo sapiens, UniProt P30542); test: Intracellular calcium mobilization, HEK293 cells expressing recombinant A1AR (CCPA); type: cell-based; conditions: for Effect on A1AR (CCPA)-mediated calcium mobilization: HEK293 cells overexpressing A1AR, Gq/11 siRNA 250 nM, PTX 200 ng/ml overnight, FR, YM 20 min before agonist
T4 construct: expressed in transfected cells
T4 sequence (P30542 1-326): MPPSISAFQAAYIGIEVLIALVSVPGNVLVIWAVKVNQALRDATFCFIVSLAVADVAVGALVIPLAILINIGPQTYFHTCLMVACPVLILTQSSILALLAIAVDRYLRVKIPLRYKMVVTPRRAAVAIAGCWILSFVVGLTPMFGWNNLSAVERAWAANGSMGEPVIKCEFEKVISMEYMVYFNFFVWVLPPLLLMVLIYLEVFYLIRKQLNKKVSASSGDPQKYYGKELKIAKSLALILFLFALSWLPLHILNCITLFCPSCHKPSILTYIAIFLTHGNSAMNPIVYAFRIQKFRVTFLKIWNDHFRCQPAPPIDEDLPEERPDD

[8] = system: M2 muscarinic receptor; test: Calcium increase, CHO cells expressing recombinant M2 muscarinic receptor (carbachol); type: cell-based; conditions: carbachol 10 µM, read-out: IC50 in inhibiting the effect of carbachol (Ca2+ increase)
[9] = biological target: T2, P2Y1R; test: Intracellular calcium mobilization, HEK293 cells, native P2Y1R (MRS2365); type: cell-based; conditions: for Effect on P2Y1R (MRS2365)-mediated calcium mobilization: Gq/11 siRNA 250 nM, PTX 200 ng/ml overnight, FR, YM 20 min before agonist
[10] = system: LPA receptor; test: Intracellular calcium mobilization, HEK293 cells, endogenous LPA receptor; type: cell-based, human
[11] = biological target: T4, A1AR; test: cAMP accumulation, HEK293 cells, A1AR-mediated inhibition of forskolin-stimulated cAMP (CCPA); type: cell-based
Method: as §1

[12] = system: A1AR; test: Calcium increase, CHO cells expressing recombinant A1AR (CCPA); type: cell-based; conditions: recombinant A1 receptor, CCPA 1 µM, read-out: IC50 in inhibiting the effect of CCPA (Ca2+ increase)
[13] = system: HMC-1 cells; conditions: HMC-1 cells; ref Feoktistov et al., 1995 [30]; cited from earlier work
[14] = system: A1AR; conditions: FR 100 nM; cited from earlier work
[15] = T24 cells, YM 300 nM, FR 300 nM, PTX 200 ng/ml, CTX 500 ng/ml overnight, other inhibitors 20 min before NECA

T2 sequence (P47900 whole entry): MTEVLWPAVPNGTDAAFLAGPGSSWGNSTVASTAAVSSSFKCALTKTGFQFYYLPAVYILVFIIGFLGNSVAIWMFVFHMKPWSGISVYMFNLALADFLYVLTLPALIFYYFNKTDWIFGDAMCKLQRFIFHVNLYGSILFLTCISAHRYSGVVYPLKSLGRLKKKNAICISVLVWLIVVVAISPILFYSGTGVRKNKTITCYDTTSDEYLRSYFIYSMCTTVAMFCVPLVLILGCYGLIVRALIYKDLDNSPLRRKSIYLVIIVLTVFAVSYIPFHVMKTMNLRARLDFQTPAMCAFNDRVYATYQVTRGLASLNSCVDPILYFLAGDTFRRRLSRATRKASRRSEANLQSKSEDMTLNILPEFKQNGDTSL
T3 sequence (P29274 whole entry): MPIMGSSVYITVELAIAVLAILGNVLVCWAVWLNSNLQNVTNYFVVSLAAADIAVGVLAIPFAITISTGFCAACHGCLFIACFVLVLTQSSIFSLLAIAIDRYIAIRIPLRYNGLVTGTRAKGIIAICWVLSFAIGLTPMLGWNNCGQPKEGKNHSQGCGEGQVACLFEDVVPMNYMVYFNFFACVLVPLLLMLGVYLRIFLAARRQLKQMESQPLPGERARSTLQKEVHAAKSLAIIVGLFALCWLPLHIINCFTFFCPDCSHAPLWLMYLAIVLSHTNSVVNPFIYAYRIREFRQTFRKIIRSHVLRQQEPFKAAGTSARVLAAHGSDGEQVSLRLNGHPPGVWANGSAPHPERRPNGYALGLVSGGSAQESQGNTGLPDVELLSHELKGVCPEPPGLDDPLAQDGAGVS

CCCCCCCCCCCCCC(=O)O[C@@H]1[C@@H](C)[C@@]2(O)[C@@H](C=C(CO)C[C@]3(O)C(=O)C(C)=C[C@@H]23)[C@@H]2C(C)(C)[C@]12OC(C)=O [PMA, phorbol 12-myristate 13-acetate]
Effect on native A2BAR (NECA)-triggered calcium mobilization [1, 15]: partially diminished; also recorded: PMA partially sensitive (8)
Effect on native P2Y1R (MRS2365)-triggered calcium mobilization [2]: completely eliminated
Effect on isoproterenol-induced calcium mobilization (β2-adrenergic receptor) ([3]; FR 300 nM, PMA 1 µM): completely diminished
Effect on formoterol-induced calcium mobilization (β2-adrenergic receptor) ([3]; FR 300 nM, YM 1 µM, PMA 1 µM): completely diminished; also recorded: PMA completely sensitive (8)

CCCn1c(=O)[nH]c2nc(-c3ccc(S(=O)(=O)N4CCN(c5ccc(Cl)cc5)CC4)cc3)[nH]c2c1=O [PSB603]
Effect on NECA-induced Ca2+ increase [4]: completely blocked
Effect on native A2BAR (NECA)-triggered calcium mobilization [1]: completely inhibited

COc1ccc2c(c1)CC[C@@H]1[C@@H]2CC[C@]2(C)[C@@H](NCCCCCCN3C(=O)C=CC3=O)CC[C@@H]12 [U73122]
Effect on native A2BAR (NECA)-triggered calcium mobilization [1, 15]: completely inhibited

C=C1C(=O)NC(C)C(=O)N(C)C(C)C(=O)NC(C(OC(=O)C(NC(C)=O)C(O)C(C)C)C(C)C)C(=O)N(C)C(C(C)OC)C(=O)OC(C)C(NC(C)=O)C(=O)OC(Cc2ccccc2)C(=O)N1C (stereo not drawn) [YM, YM254890] (Ac-T[PhLac][NMeDha]A[NMeA][X2][NMeT](Me); ester 1-C; configuration not given here)
Sensitivity of P2Y1R calcium mobilization to modulator [5]: YM sensitive
Effect on A2AAR-mediated stimulation of cAMP accumulation [6]: did not affect
Effect on native A2BAR (NECA)-triggered calcium mobilization [1, 15]: little if any effect; also recorded: FR and YM insensitive (4); Gαq/11 siRNA insensitive (4)
Effect on A1AR (CCPA)-mediated calcium mobilization [7]: inhibited; also recorded: YM and FR – fully sensitive (2)
IC50 ([7]; HEK293 cells, overexpressed A1AR, agonist CCPA 1 µM, read-out: IC50 for inhibition of A1AR-mediated calcium mobilization): 12.9 ± 2.52 nM
Effect on native P2Y1R (MRS2365)-triggered calcium mobilization [2]: completely inhibited; also recorded: YM – fully sensitive (4)
IC50 [8]: 9.53 nM
Effect on P2Y1R (MRS2365)-mediated calcium mobilization [9]: inhibited; also recorded: fully sensitive
IC50 ([9]; agonist MRS2365 1 µM, read-out: IC50 to inhibit P2Y1R-mediated calcium mobilization): 12.8 ± 4.1 nM
Effect on LPA-induced intracellular calcium mobilization ([10]; YM 300 nM): completely inhibited
Effect on formoterol-induced calcium mobilization (β2-adrenergic receptor) ([3]; FR 300 nM, YM 1 µM, PMA 1 µM): YM – partially sensitive (6)
Inhibition of the maximum effect (Emax) of formoterol, calcium mobilization ([3]; YM 1 µM): 78%
Effect on A1AR-mediated inhibition of cAMP accumulation [11]: did not affect
IC50 [12]: 11.6 nM

Pertussis toxin [PTX]
Sensitivity of P2Y1R calcium mobilization to modulator [5]: PTX insensitive
Sensitivity of NECA-induced Ca2+ increase to toxin [13]: ^b NECA-induced Ca^2+ increase in HMC-1 cells was insensitive to CTX and PTX, Feoktistov et al., 1995 [30]
Effect on native A2BAR (NECA)-triggered calcium mobilization [1, 15]: diminished; also recorded: PTX sensitive (5)
Effect on A1AR (CCPA)-mediated calcium mobilization [7]: completely inhibited; also recorded: PTX sensitive (1)
Effect on native P2Y1R (MRS2365)-triggered calcium mobilization [2]: no effect; also recorded: PTX insensitive (5)
Effect on P2Y1R (MRS2365)-mediated calcium mobilization [9]: no effect; also recorded: PTX insensitive (1)
Effect on A1AR-mediated Akt1/2/3 phosphorylation [14]: completely inhibited
Effect on formoterol-induced calcium mobilization (β2-adrenergic receptor) ([3]; FR 300 nM, YM 1 µM, PMA 1 µM): did not produce significant attenuation; also recorded: PTX not sensitive (6)

lysophosphatidic acid [LPA]
EC50 ([10]; endogenous LPA receptor, read-out: EC50 of induced intracellular calcium mobilization): 4590 nM
